Paper PMC9130746, “In Vitro Activity of Peptide Antibiotics in Combination With Other Antimicrobials on Extensively Drug-Resistant Acinetobacter baumannii in the Planktonic and Biofilm Cell” (Frontiers in Pharmacology, 2022)
Values after ≈ are worked out from the molar mass of the structure shown. Where two headings read alike, the source gives them in different places. Bridge positions count the residues as written; N and C are the ends. Square brackets hold non-standard residues; d marks the D form. Peptide text beside a SMILES is read from it. * marks the point of attachment. X1 = CC[C@H](C)CCCCC(=O)*; Dab = NCC[C@H](N)C(=O)O

Assays:
Format in all cases: cell-based, Acinetobacter baumannii
[1] = system: extensively drug-resistant A. baumannii isolates (biofilm cell); assay: Checkerboard synergy study in the biofilm cell (FBIC); conditions: in combination with polymyxins
Method: The checkerboard method, the fractional inhibitory concentration index (FICI), and the fractional biofilm inhibitory concentration index (FBIC) evaluated the synergistic effects of five peptide antibiotics combined with one of the five antimicrobials in the planktonic and biofilm cells among the nine XDRAB isolates. The planktonic cells were investigated by adding 170 µl of MHB and 10 µl of bacterial suspension (1.5 × 10^8 CFU/ml) into the 96 well plates. It was followed by adding 10 µl of serially diluted peptide antibiotics along the x-axis and antimicrobials along the y-axis. The biofilm cells were studied by cultivating the bacteria to form the biofilm into a 96-well plate (NEST TC, 701001, www.cell-nest.com) and washed with 200 µl of PBS three times. The following steps were consistent with the planktonic study. The value of OD600 was measured after incubating at 37°C for 20 h. The FICI and FBIC were evaluated as follows: Synergy between the two drugs was defined as either a FICI or an FBIC of ≤0.5, >0.5–1 for additivity, >1–2 for indifference, and >2 for antagonism ([Kim et al., 2015]; [Peng et al., 2020]; [Lin et al., 2021]).

[2] = system: extensively drug-resistant A. baumannii clinical isolates (planktonic cell); assay: microbe, parasite or virus in culture; conditions: for MIC: planktonic, broth microdilution, CAMHB, 37°C 16–20 h, OD600
Description: (§1) Nine XDRAB strains were isolated from clinical specimens such as the septum, urine, or respiratory lavage fluid of patients from the respiratory intensive care unit, intensive care unit, the cardiothoracic surgery department, and the neurology department at the First Affiliated Hospital of Chengdu Medical College during the period from 2018 to 2020 (Chengdu, Sichuan, China). In addition, A. baumannii ATCC 19606, Staphylococcus aureus ATCC 29213, and Escherichia coli ATCC 25922 were used as quality control strains in antimicrobial susceptibility testing (AST) and obtained from the American Type Culture Collection (ATCC, Manassas, VA, United States).
The minimum inhibitory concentrations (MICs) were determined by the broth microdilution method for the antibacterial agents and peptide antibiotics for A. baumannii based on the guidelines provided by the Clinical and Laboratory Standards Institute (CLSI) ([Humphries et al., 2021]). Briefly, bacterial cells were inoculated in Luria–Bertani agar medium at 37°C for 16–20 h, and then resuspended in saline (0.9% sodium chloride) to adjust the bacterial content to reach the 0.5 McFarland turbidity standard, followed by a 20-fold dilution. Antimicrobial solutions were prepared according to the CLSI ([Humphries et al., 2021]). Finally, 180 μl CAMHB, 10 µl corresponding antimicrobials, and 10 µl bacterial resuspension were added into 96-well plate (NEST TC, 701001, www.cell-nest.com). The value of OD600 was measured after incubating at 37°C for 16–20 h.

[3] = system: extensively drug-resistant A. baumannii clinical isolates (biofilm cell); conditions: for MBIC: 24 h biofilm in TSB, then MH broth with drug 16–20 h 37°C, OD600
Description: as §1
The minimum biofilm inhibitory concentrations (MBICs) were detected using a previous study protocol ([Kart et al., 2021]) for the antibacterial agents and peptide antibiotics for A. baumannii in the biofilm cell. First, bacterial cells were inoculated in Luria–Bertani agar medium at 37°C for 16–20 h. Next, the bacterial monoclones were resuspended in saline (0.9% sodium chloride) to adjust the bacterial content to reach the 0.5 McFarland turbidity standard. Then, 190 µl TSB and 10 µl bacterial resuspension were mixed in a 96-well plate. After incubating at 37°C for 24 h, the medium was aspirated, and 200 µl PBS was added to wash three times. Finally, 190 μl MH broth medium and 10 µl corresponding antibiotics were added into 96-well plate (NEST TC, 701001, www.cell-nest.com). The optical density was measured at OD600 after incubating for 16–20 h at 37°C.

[4] = after XDRAB biofilm formation, nine isolates

| Compound | MIC ([2]; isolate AB1) [µg/mL] | MIC ([2]; isolate AB2) [µg/mL] | MIC ([2]; isolate AB3) [µg/mL] | MIC ([2]; isolate AB4) [µg/mL] | MIC ([2]; isolate AB5) [µg/mL] | MIC ([2]; isolate AB6) [µg/mL] | MIC ([2]; isolate AB7) [µg/mL] | MIC ([2]; isolate AB8) [µg/mL] | MIC ([2]; isolate AB9) [µg/mL] | MBIC ([3]; isolate AB1) [µg/mL] | MBIC ([3]; isolate AB2) [µg/mL] | MBIC ([3]; isolate AB3) [µg/mL] | MBIC ([3]; isolate AB4) [µg/mL] | MBIC ([3]; isolate AB5) [µg/mL] | MBIC ([3]; isolate AB6) [µg/mL] | MBIC ([3]; isolate AB7) [µg/mL] | MBIC ([3]; isolate AB8) [µg/mL] | MBIC ([3]; isolate AB9) [µg/mL] | other results |
| --- | --- | --- | --- | --- | --- | --- | --- | --- | --- | --- | --- | --- | --- | --- | --- | --- | --- | --- | --- |
| CC[C@H]1OC(=O)[C@H](C)[C@@H](O[C@H]2C[C@@](C)(OC)[C@@H](O)[C@H](C)O2)[C@H](C)[C@@H](O[C@@H]2O[C@H](C)C[C@H](N(C)C)[C@H]2O)[C@](C)(O)C[C@@H](C)CN(C)[C@H](C)[C@@H](O)[C@]1(C)O [azithromycin] | – | – | – | – | – | – | – | – | – | – | – | – | – | – | – | – | – | – | MBIC when combined with polymyxins [1]: 128 µg/mL |
| polymyxin E | 2 | 1 | 1 | 2 | 2 | 1 | 2 | 2 | 2 | 16 | 8 | 4 | 4 | 8 | 8 | 8 | 4 | 8 | – |
| CN(C)c1cc(NC(=O)CNC(C)(C)C)c(O)c2c1C[C@H]1C[C@H]3[C@H](N(C)C)C(O)=C(C(N)=O)C(=O)[C@@]3(O)C(O)=C1C2=O [Tigecycline, tigecycline] | – | – | – | – | – | – | – | – | – | – | – | – | – | – | – | – | – | – | MIC ([2]; Acinetobacter baumannii, isolate AB1, read-out: MIC): 1 µg/mL (≈ 1.71 µM); MIC ([2]; Acinetobacter baumannii, isolate AB2, read-out: MIC): 1 µg/mL (≈ 1.71 µM); MIC ([2]; Acinetobacter baumannii, isolate AB3, read-out: MIC): 1 µg/mL (≈ 1.71 µM); MIC ([2]; Acinetobacter baumannii, isolate AB4, read-out: MIC): 1 µg/mL (≈ 1.71 µM); MIC ([2]; Acinetobacter baumannii, isolate AB5, read-out: MIC): 1 µg/mL (≈ 1.71 µM); MIC ([2]; Acinetobacter baumannii, isolate AB6, read-out: MIC): 1 µg/mL (≈ 1.71 µM); MIC ([2]; Acinetobacter baumannii, isolate AB7, read-out: MIC): 1 µg/mL (≈ 1.71 µM); MIC ([2]; Acinetobacter baumannii, isolate AB8, read-out: MIC): 1 µg/mL (≈ 1.71 µM); MIC ([2]; Acinetobacter baumannii, isolate AB9, read-out: MIC): 0.5 µg/mL (≈ 0.854 µM); sensitivity rate ([2]; planktonic cell, nine isolates): 100%; intermediate rate [3, 4]: 67%; resistance rate [3, 4]: 22%; sensitivity rate [3, 4]: 11% |
| CC[C@H](C)CCCCC(=O)N[C@@H](CCN)C(=O)N[C@H](C(=O)N[C@@H](CCN)C(=O)N[C@H]1CCNC(=O)[C@H]([C@@H](C)O)NC(=O)[C@H](CCN)NC(=O)[C@H](CCN)NC(=O)[C@H](CC(C)C)NC(=O)[C@@H](Cc2ccccc2)NC(=O)[C@H](CCN)NC1=O)[C@@H](C)O [Polymyxin B, polymyxin B] (X1-[Dab]T[Dab][Dab][Dab][dF]L[Dab][Dab]T; lactam 4-C (inferred); N-terminus assumed) | 2 (≈ 1.66 µM) | 1 (≈ 0.831 µM) | 1 (≈ 0.831 µM) | 2 (≈ 1.66 µM) | 2 (≈ 1.66 µM) | 1 (≈ 0.831 µM) | 2 (≈ 1.66 µM) | 2 (≈ 1.66 µM) | 2 (≈ 1.66 µM) | 16 | 16 | 8 | 8 | 16 | 16 | 8 | 8 | 8 | – |
| teicoplanin | 64 | 64 | 32 | 32 | 64 | 32 | 128 | 32 | 64 | – | 64 | 64 | – | – | 64 | – | – | 64 | – |
